Legend:
MKK7β = biological target: T1, MKK7β (Homo sapiens, UniProt O14733); experiment: Eurofins Kinase Profiler panel; type: biochemical
T1 construct: Eurofins Pharma Discovery Services UK Limited (Kinase Profiler service)

Fms = biological target: T2, Fms (Homo sapiens, UniProt P07333); experiment: Eurofins Kinase Profiler panel; type: biochemical; settings: read-out: % inhibition (1μM), DMSO control=100%, lower=stronger
T2 construct: purchased Eurofins Pharma Discovery Services UK Limited (Kinase Profiler screening platform)

JAK3 = biological target: T3, JAK3 (Homo sapiens, UniProt P52333); experiment: Eurofins Kinase Profiler panel; type: biochemical; settings: read-out: % inhibition (1μM), DMSO control=100%, lower=stronger, text: residual kinase activity
T3 construct: ChemPartner (contract assay service)
T3 sequence (P52333 1-1124): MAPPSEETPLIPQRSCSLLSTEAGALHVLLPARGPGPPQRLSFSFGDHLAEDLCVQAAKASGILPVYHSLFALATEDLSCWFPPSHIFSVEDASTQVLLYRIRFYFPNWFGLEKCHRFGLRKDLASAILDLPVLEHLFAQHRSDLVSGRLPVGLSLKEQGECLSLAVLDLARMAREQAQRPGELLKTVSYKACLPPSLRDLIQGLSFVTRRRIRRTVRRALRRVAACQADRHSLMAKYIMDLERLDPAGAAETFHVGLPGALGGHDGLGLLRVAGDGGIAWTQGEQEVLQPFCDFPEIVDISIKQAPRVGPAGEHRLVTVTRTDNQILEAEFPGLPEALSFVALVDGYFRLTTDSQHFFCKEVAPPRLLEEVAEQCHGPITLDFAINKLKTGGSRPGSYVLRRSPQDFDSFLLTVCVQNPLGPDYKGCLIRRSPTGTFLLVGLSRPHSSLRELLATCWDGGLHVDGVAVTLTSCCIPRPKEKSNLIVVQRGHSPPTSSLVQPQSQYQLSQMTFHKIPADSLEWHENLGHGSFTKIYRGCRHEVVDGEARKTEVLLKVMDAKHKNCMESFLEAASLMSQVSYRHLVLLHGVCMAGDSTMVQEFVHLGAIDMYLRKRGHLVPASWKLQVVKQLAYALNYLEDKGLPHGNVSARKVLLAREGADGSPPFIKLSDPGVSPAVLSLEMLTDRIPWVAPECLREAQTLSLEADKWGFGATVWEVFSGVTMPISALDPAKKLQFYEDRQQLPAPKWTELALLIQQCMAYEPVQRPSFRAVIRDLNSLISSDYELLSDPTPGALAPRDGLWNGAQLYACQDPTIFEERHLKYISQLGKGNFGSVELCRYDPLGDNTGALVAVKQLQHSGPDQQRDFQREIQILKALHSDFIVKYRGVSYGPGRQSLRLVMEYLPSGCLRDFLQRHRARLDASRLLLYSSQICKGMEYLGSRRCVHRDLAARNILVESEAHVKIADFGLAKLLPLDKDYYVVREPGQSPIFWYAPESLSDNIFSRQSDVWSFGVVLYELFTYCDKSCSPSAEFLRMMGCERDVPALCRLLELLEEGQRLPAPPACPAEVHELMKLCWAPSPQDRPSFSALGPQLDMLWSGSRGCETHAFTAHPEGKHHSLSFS

Aurora-A = biological target: T4, Aurora-A (Homo sapiens, UniProt O14965); experiment: Eurofins Kinase Profiler panel; type: biochemical
T4 construct: Eurofins Pharma Discovery Services UK Limited (Kinase Profiler service)

[1] = test system: GM-CSF-induced JAK/STAT5 phosphorylation in TF-1 cells (JAK2); experiment: STAT5 phosphorylation induced by GM-CSF in TF-1 cells, Western blot
ALK4 = biological target: T5, ALK4 (Homo sapiens, UniProt P36896); experiment: Eurofins Kinase Profiler panel; type: biochemical; settings: read-out: % inhibition (1μM), DMSO control=100%, lower=stronger
T5 construct: purchased Eurofins KinaseProfiler (Eurofins Pharma Discovery Services UK, Dundee); JAK3 also ChemPartner

IKKα = biological target: T6, IKKα (Homo sapiens, UniProt O15111); experiment: Eurofins Kinase Profiler panel; type: biochemical; settings: read-out: % inhibition (1μM), DMSO control=100%, lower=stronger
T6 construct: purchased Eurofins KinaseProfiler (Eurofins Pharma Discovery Services UK, Dundee); JAK3 also ChemPartner

ACK1 = biological target: T7, ACK1 (Homo sapiens, UniProt Q07912); experiment: Eurofins Kinase Profiler panel; type: biochemical; settings: read-out: % inhibition (1μM), DMSO control=100%, lower=stronger
T7 construct: purchased Eurofins KinaseProfiler (Eurofins Pharma Discovery Services UK, Dundee); JAK3 also ChemPartner

GRK5 = biological target: T8, GRK5 (Homo sapiens, UniProt P34947); experiment: Eurofins Kinase Profiler panel; type: biochemical; settings: read-out: % inhibition (1μM), DMSO control=100%, lower=stronger
T8 construct: purchased Eurofins KinaseProfiler (Eurofins Pharma Discovery Services UK, Dundee); JAK3 also ChemPartner

[2] = test system: serum TNF-α, IL-1β and IL-6 in CIA mice; experiment: Serum cytokines of CIA mice by ELISA; type: in vivo, mouse
[3] = test system: JAK-STAT pathway in joints of CIA mice; experiment: JAK/STAT phosphorylation in joint tissue of CIA mice, Western blot; type: in vivo, mouse; settings: dose-dependent
Description: Proteins were visualized with enhanced chemiluminescence.

[4] = test system: IFN-α2b-induced JAK/STAT1 phosphorylation in U2OS cells (JAK1); experiment: STAT1 phosphorylation induced by IFN-α2b in U2OS cells, Western blot
Flt3 = biological target: T9, Flt3 (Homo sapiens, UniProt P36888); experiment: Eurofins Kinase Profiler panel; type: biochemical; settings: read-out: % inhibition (1μM), DMSO control=100%, lower=stronger
T9 construct: purchased Eurofins Pharma Discovery Services UK Limited (Kinase Profiler screening platform)

[5] = test system: IL-2-induced STAT5 phosphorylation (JAK1/JAK3); experiment: IL-2-induced pSTAT5 in total lymphocytes in hPBMCs, flow cytometry; type: cell-based; settings: Homo sapiens, Lymphocyte, hPBMC total lymphocytes, trigger IL-2, readout pSTAT5
BTK = biological target: T10, BTK (Homo sapiens, UniProt Q06187); experiment: Cys-containing kinase family panel (EurofinsCerep); type: biochemical
T10 construct: EurofinsCerep (contract assay service)

JNK2α2 = biological target: T11, JNK2α2 (Homo sapiens, UniProt P45984); experiment: Eurofins Kinase Profiler panel; type: biochemical; settings: read-out: % inhibition (1μM), DMSO control=100%, lower=stronger
T11 construct: purchased Eurofins KinaseProfiler (Eurofins Pharma Discovery Services UK, Dundee); JAK3 also ChemPartner

MAPKAP-K2 = biological target: T12, MAPKAP-K2 (Homo sapiens, UniProt P49137); experiment: Eurofins Kinase Profiler panel; type: biochemical; settings: read-out: % inhibition (1μM), DMSO control=100%, lower=stronger
T12 construct: purchased Eurofins KinaseProfiler (Eurofins Pharma Discovery Services UK, Dundee); JAK3 also ChemPartner

CDK1 = biological target: T13, CDK1 (Homo sapiens, UniProt P06493); experiment: Eurofins Kinase Profiler panel; type: biochemical; settings: read-out: % inhibition (1μM), DMSO control=100%, lower=stronger
T13 construct: purchased Eurofins KinaseProfiler (Eurofins Pharma Discovery Services UK, Dundee); JAK3 also ChemPartner

IR = biological target: T14, IR (Homo sapiens, UniProt P06213); experiment: Eurofins Kinase Profiler panel; type: biochemical; settings: read-out: % inhibition (1μM), DMSO control=100%, lower=stronger
T14 construct: purchased Eurofins KinaseProfiler (Eurofins Pharma Discovery Services UK, Dundee); JAK3 also ChemPartner

BLK = biological target: T15, BLK (Homo sapiens, UniProt P51451); experiment: Cys-containing kinase family panel (EurofinsCerep); type: biochemical
T15 construct: EurofinsCerep (contract assay service)

FAK = biological target: T16, FAK (Homo sapiens, UniProt Q05397); experiment: Eurofins Kinase Profiler panel; type: biochemical; settings: read-out: % inhibition (1μM), DMSO control=100%, lower=stronger
T16 construct: Eurofins Pharma Discovery Services UK Limited (Kinase Profiler service)

Aurora-B = biological target: T17, Aurora-B (Homo sapiens, UniProt Q96GD4); experiment: Eurofins Kinase Profiler panel; type: biochemical
T17 construct: Eurofins Pharma Discovery Services UK Limited (Kinase Profiler service)

[6] = test system: GM-CSF-induced STAT5 phosphorylation (JAK2); experiment: GM-CSF-induced pSTAT5 in total lymphocytes in hPBMCs, flow cytometry; type: cell-based; settings: Homo sapiens, Lymphocyte, hPBMC total lymphocytes, trigger GM-CSF, readout pSTAT5
[7] = read-out: % inhibition (1μM), 1 µM, DMSO control=100%, lower=stronger

T17 sequence (Q96GD4 whole entry): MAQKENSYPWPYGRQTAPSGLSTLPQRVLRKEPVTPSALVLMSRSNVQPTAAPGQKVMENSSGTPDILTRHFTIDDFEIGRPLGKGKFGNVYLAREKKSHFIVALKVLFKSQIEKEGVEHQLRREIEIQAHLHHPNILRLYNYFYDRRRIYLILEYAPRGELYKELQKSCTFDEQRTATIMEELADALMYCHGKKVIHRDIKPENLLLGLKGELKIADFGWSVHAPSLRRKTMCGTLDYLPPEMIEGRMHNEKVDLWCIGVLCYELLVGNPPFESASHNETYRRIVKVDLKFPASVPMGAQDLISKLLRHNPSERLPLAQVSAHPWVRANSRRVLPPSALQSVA
T4 sequence (O14965 whole entry): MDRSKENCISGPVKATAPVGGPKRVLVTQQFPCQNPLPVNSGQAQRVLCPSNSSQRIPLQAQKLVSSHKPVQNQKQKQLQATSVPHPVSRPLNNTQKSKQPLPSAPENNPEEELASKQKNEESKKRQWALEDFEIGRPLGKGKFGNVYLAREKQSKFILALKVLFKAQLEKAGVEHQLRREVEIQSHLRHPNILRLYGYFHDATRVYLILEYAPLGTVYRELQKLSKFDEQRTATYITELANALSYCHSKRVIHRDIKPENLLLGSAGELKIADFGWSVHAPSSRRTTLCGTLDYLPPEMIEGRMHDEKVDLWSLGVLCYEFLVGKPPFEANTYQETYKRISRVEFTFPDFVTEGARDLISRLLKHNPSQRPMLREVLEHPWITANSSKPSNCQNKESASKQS
T1 sequence (O14733 whole entry): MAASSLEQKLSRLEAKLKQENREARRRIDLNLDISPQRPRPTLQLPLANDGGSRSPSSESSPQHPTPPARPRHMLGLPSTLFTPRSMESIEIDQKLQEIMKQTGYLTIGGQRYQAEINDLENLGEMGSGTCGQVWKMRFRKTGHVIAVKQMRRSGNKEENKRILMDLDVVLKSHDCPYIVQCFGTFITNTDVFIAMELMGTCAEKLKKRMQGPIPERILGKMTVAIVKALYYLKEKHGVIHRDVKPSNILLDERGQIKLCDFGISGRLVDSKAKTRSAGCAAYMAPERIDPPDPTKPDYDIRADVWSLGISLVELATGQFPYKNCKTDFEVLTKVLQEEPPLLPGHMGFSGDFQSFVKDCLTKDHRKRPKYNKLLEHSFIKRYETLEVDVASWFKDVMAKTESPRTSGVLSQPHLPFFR
T10 sequence (Q06187 whole entry): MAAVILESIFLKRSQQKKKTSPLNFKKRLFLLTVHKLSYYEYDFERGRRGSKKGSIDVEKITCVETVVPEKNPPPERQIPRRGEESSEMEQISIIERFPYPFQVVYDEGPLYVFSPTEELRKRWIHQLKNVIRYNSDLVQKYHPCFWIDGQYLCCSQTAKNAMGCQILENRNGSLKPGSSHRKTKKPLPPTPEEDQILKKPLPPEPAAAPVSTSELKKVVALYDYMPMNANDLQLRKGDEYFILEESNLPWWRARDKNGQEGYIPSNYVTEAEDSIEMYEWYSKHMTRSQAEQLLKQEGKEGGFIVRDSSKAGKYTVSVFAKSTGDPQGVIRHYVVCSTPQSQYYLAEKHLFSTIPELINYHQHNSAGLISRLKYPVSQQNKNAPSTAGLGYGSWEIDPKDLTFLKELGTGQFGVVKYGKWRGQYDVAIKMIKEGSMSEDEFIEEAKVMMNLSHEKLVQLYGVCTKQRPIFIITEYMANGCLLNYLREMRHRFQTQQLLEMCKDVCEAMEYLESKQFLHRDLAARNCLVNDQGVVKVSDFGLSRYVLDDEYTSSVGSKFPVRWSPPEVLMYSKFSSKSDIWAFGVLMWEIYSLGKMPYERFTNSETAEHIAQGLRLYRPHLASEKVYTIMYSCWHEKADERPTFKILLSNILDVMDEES
T8 sequence (P34947 whole entry): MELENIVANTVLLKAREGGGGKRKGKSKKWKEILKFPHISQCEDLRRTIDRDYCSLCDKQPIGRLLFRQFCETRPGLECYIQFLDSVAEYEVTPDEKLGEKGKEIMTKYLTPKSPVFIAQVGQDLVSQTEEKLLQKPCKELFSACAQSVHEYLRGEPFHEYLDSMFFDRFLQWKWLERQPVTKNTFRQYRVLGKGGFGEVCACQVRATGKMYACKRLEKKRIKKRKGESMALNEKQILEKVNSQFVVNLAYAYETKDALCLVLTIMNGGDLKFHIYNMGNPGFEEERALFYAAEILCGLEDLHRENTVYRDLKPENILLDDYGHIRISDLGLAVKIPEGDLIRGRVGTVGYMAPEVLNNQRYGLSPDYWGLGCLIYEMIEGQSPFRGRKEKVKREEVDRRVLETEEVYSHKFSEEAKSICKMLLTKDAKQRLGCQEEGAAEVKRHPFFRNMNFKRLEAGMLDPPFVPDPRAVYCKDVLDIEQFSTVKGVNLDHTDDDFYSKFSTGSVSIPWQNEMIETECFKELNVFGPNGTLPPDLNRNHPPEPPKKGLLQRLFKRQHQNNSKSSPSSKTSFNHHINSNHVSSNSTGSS
T2 sequence (P07333 20-972): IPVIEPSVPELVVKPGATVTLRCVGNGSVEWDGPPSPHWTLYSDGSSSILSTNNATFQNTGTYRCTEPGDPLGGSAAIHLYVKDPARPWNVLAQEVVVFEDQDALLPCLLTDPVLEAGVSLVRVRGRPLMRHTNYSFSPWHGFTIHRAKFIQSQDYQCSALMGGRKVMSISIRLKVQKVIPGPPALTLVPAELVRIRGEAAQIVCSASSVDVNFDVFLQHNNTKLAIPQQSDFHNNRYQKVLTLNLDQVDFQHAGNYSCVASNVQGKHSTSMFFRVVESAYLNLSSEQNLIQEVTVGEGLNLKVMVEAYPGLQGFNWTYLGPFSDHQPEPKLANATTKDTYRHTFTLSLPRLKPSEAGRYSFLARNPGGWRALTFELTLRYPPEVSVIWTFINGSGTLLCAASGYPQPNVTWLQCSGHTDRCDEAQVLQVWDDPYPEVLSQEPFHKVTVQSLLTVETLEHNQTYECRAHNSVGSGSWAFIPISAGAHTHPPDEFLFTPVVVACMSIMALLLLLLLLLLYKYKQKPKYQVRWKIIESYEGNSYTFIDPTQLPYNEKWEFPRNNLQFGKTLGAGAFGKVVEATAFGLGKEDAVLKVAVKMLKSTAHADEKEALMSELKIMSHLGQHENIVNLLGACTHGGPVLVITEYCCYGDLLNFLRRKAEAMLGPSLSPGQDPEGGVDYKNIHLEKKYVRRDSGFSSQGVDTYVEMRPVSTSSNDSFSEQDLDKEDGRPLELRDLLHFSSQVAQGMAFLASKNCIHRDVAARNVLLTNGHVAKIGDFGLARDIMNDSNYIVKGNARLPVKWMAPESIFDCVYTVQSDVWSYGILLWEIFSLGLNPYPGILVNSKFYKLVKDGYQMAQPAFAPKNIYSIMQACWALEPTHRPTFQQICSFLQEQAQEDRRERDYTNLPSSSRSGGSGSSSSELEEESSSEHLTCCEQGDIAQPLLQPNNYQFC
T16 sequence (Q05397 whole entry): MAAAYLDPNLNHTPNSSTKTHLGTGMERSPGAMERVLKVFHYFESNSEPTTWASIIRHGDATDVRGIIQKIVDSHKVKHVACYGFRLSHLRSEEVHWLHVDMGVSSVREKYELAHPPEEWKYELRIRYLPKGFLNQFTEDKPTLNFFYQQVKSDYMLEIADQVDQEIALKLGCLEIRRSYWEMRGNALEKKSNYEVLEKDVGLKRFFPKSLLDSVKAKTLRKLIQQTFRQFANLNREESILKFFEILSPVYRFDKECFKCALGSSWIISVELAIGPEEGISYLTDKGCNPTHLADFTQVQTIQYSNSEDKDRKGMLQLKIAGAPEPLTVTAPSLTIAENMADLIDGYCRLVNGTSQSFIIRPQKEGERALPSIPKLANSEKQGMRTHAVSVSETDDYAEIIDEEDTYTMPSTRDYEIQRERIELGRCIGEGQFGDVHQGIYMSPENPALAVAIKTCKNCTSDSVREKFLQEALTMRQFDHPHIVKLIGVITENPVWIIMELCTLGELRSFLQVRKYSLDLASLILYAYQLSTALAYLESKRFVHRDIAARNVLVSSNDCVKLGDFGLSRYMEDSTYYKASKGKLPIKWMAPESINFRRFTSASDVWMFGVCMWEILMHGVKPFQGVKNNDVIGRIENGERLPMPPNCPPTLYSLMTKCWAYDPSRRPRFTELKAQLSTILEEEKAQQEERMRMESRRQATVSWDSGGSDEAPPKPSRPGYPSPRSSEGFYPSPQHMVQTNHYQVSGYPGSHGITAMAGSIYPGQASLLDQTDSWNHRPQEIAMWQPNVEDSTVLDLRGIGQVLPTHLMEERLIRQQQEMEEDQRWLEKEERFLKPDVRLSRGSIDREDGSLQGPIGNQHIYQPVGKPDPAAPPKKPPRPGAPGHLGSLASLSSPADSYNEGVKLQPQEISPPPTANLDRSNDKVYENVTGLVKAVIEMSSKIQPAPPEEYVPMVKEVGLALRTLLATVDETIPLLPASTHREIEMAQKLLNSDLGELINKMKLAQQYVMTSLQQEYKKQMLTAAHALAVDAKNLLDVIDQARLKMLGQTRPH
T11 sequence (P45984 whole entry): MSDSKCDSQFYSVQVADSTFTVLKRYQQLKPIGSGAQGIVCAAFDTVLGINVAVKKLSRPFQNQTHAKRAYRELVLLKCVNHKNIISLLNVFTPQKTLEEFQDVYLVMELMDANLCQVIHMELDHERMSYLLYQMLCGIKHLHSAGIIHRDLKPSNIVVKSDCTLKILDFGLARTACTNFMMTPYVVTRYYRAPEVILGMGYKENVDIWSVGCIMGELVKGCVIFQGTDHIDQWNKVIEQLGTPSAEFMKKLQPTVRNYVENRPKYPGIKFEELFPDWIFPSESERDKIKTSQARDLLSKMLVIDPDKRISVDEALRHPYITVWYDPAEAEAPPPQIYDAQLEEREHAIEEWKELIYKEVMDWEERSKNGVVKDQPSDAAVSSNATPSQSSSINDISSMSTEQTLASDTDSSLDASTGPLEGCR

C=CC(=O)N[C@@H]1CCCN(c2ncnc3[nH]ccc23)C1 [RB1]
IC50 (MKK7β; estimated): > 800 nM | activity at 1 µM (MKK7β; [7]): 20% | activity at 1 µM (Fms): 90% | activity at 1 µM (JAK3): 0.9% | IC50 (Aurora-A; estimated): > 800 nM | activity at 1 µM (Aurora-A; [7]): 21% | Selectivity JAK2/JAK3 ([1]; GM-CSF, pSTAT5): > 1000 | IC50 ([1]; Homo sapiens): > 50000 nM | activity at 1 µM (ALK4): 101% | activity at 1 µM (IKKα): 97% | activity at 1 µM (ACK1): 34% | activity at 1 µM (GRK5): 94% | serum TNF-α, IL-1β and IL-6 levels [2]: significantly reduced in a dose-dependent manner | phosphorylation status of JAKs and STATs in joint tissue [3]: hypo-phosphorylation of JAK3, STAT1 and STAT3 | IC50 ([4]; Homo sapiens, read-out: IC50, STAT and JAK phosphorylation): > 50000 nM | Selectivity JAK1/JAK3 ([4]; IFN-α2B, pSTAT1): > 1000 | activity at 1 µM (Flt3): 75% | IC50 [5]: 105 nM | inhibition at 1 µM (BTK): -0.95% | activity at 1 µM (JNK2α2): 109% | activity at 1 µM (MAPKAP-K2): 97% | activity at 1 µM (CDK1): 96% | activity at 1 µM (IR): 114% | inhibition at 1 µM (BLK): 8.35% | activity at 1 µM (FAK): 72% | IC50 (Aurora-B; estimated): > 800 nM | activity at 1 µM (Aurora-B; [7]): 12% | IC50 [6]: > 10000 nM
